The record followed here is patent US20080200470A1, “Diaza- or Thiazadione Derivatives With Neuroprotective Activity” (Schwartz Pharma S.L, priority 2005, published 2008).

The test system of data set [1] is primary cultures of rat hippocampus. Put plainly: Neurotoxicity due to deprivation of trophic factors (serum deprivation), MTT. The data set is classed as cell-based. The note with it: serum-free medium 48 hours. The procedure: (§1) The capacity to prevent neurotoxicity induced by hypoxia/hypoglycaemia in primary cultures of rat hippocampus (E18) was determined. […] After centrifuging at 700 g, the pellet was mechanically redispersed. The density of the cellular suspension was measured and aliquots were taken to culture on Petri dishes, previously coated with poly-lysine, using the same medium. […] Before the hypoxia, the compounds to be studied were added at variable times and concentrations.
In this case, an Eagle medium (DMEM) modified with 10% of calf serum was initially used and, after 10 days, the cultures were transferred to the DMEM culture deprived of calf serum.

Data set [2] has the same test system. Description: Neurotoxicity induced by hypoxia/hypoglycaemia (oxygen-glucose deprivation), MTT. The data set is classed as cell-based. The note with it: glucose-free medium, 2 hours 95% N2/5% CO2, MTT. On the procedure:
as §1

For data set [3], the system named is cerebral infarction after intraluminal occlusion of the middle cerebral artery (MCA) in rats. Put plainly: Focal ischemic model in rats, occlusion of the middle cerebral artery. The data set is classed as in vivo. The note with it: rat, 40 μg/kg intravenously, 24 hours after ischemic damage.
Procedure: The rats were anaesthetised with halotan, maintaining their temperature at 37.5° C. using an electric blanket connected to a rectal probe and cannulating the left femoral artery to monitor blood pressure. The right carotid artery was exposed, occluding the extra-cranial branches, and a blunt nylon filament was introduced through the external carotid until reaching the level when the middle cerebral artery (MCA) branches.
The selected compounds were administered intravenously. 24 Hours after the ischemic damage, the rats were anaesthetised with ether, they were perfused with saline solution and were then decapitated, extracting the brains that were cut into 1.5 mm coronal slices. The slices were then incubated in 4% triphenyltetrazolium chloride (TTC), which reacts with the intact mitochondrial enzymes producing a red colour which contrasts with the paleness of the infracted area, permitting it to be viewed, subsequently maintaining it in 10% formalin. The volume of cerebral infarction (mm^3) was calculated by measuring, in an image analyser, the affected area in the areas of cerebral cortex irrigated by the MCA and in the striatum and multiplying the average value obtained in each slice by the thickness thereof.

Structures can show the parent of a compound that is named as a salt. Marks after values point to notes of the source that are not given here.

On to `O=C1C2CCCCN2C(=O)N1CCCCCCNCc1ccc2ccccc2n1` (stereo not shown) (as salt: salt) [ll, 2-[6-[(2-Quinolyl)methylamino]hexyl]-1,3-dioxoperhydroimidazo[1,5-a]pyridine], for which the melting point is 176 to 188 °C. The same measure, in the same setting: the same measure for `O=C1C2CCCN2C(=O)N1CCCCNCCOc1ccccc1Br` (stereo not shown) (as salt: salt) [o, 2-[4-[2-(o-Bromophenoxy)ethylamino]butyl]-1,3-dioxoperhydropyrrolo[1,2-c]imidazole]: 98 to 99 °C; for `O=C1C2CCCN2C(=O)N1CCCCNCCOc1cccc(Br)c1` (stereo not shown) (as salt: salt): 140 to 143 °C; for `O=C1C2CCCCN2C(=O)N1CCCCNCc1ccc2ccccc2n1` (stereo not shown) (as salt: salt) [kk, 2-[4-[(2-Quinolyl)methylamino]butyl]-1,3-dioxoperhydroimidazo[1,5-a]pyridine]: 206 to 208 °C. Turning to (±)-BAYx3702, the “Protection (%) Serum Deprivation” value in data set [1] was 25.9 ± 2.5%. `CCOc1ccccc1OCCNCCCCCCCCN1C(=O)CSC1=O` (as salt: salt) [hh, 3-[8-[2-(o-Ethoxyphenoxy)ethylamino]octyl]-2,4-dioxothiazolidine] returned a melting point of 105 to 108 °C. As for `O=C1C2CCCN2C(=O)N1CCCCNCc1ccc2ccccc2n1` (stereo not shown), the melting point was in the range of 125 to 126 °C. The compound `CCc1ccccc1OCCNCCCCN1C(=O)C2CCCN2C1=O` (stereo not shown) (as salt: salt) came in with a melting point of 115 to 118 °C.

Regarding `O=C1c2ccccc2S(=O)(=O)N1CCCCNC[C@H]1CCc2ccccc2O1` [(−)-BAYx3702], the “Protection (%) Serum Deprivation” value in data set [1] was 31.0 ± 2.9%. For the same compound, in data set [2], the “Protection (%) Oxygen-glucose deprivation” value is recorded as 77.5 ± 8.6%. Further, in data set [3], the “Infarcted Volumen Cortical” value was 271.2 ± 54.7* mm^3, the “Infarcted Volumen Subcortical” value stood at 105.5 ± 9.3 mm^3 and the “Infarcted Volumen Total” value is reported as 376.7 ± 57.8* mm^3. Consider `CCCN(CCC)C1CCc2cccc(O)c2C1` (stereo not shown) [Compound 8-OH-DPAT, 8-OH-DPAT], for which the “Protection (%) Serum Deprivation” value in data set [1] amounted to 44.0 ± 1.4%. Besides, in data set [2], the “Protection (%) Oxygen-glucose deprivation” value is listed as 54.0 ± 3.5%. Consider `CCOc1ccccc1OCCNCCCCN1C(=O)CSC1=O` (as salt: salt) [ff, 3-[4-[2-(o-Ethoxyphenoxy)ethylamino]butyl]-2,4-dioxothiazolidine], for which the melting point fell in the range of 70 to 74 °C.
